For orientation: IC50 means the point on the concentration scale where inhibition reaches its midpoint. Usually Kd stands for the concentration at which binding is half-saturated. As usually defined, the Ki is the dissociation constant of the complex between target and ligand, obtained from inhibition or displacement.

T4 sequence (Q9Y5N1 whole entry): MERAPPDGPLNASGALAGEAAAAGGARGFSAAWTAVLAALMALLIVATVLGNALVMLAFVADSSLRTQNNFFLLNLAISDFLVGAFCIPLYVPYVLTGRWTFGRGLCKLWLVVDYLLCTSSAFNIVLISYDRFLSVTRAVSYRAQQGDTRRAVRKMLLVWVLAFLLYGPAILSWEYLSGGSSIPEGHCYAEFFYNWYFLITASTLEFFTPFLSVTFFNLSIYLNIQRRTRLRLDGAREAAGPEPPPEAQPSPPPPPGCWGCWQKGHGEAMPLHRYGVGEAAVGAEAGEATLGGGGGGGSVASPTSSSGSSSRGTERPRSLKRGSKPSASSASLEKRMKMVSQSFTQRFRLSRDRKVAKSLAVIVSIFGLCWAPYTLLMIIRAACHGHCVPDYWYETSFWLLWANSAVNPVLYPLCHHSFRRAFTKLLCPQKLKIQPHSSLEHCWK
T1 sequence (P81908 whole entry): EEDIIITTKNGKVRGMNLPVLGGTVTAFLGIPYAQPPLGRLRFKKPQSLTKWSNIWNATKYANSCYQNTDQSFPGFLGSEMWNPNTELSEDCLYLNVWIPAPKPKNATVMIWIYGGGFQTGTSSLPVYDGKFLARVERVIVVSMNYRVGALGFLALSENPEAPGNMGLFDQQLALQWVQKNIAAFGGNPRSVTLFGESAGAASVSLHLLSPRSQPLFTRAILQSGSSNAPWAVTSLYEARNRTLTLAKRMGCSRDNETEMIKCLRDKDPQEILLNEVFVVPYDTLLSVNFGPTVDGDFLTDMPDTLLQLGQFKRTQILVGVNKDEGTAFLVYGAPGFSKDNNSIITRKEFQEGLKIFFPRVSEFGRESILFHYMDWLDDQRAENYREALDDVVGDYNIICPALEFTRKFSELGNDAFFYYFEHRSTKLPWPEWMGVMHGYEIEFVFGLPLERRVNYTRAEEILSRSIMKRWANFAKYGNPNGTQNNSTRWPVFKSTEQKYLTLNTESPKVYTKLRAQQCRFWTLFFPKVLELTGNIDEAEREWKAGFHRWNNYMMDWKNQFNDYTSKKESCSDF
T3 sequence (O42275 24-633): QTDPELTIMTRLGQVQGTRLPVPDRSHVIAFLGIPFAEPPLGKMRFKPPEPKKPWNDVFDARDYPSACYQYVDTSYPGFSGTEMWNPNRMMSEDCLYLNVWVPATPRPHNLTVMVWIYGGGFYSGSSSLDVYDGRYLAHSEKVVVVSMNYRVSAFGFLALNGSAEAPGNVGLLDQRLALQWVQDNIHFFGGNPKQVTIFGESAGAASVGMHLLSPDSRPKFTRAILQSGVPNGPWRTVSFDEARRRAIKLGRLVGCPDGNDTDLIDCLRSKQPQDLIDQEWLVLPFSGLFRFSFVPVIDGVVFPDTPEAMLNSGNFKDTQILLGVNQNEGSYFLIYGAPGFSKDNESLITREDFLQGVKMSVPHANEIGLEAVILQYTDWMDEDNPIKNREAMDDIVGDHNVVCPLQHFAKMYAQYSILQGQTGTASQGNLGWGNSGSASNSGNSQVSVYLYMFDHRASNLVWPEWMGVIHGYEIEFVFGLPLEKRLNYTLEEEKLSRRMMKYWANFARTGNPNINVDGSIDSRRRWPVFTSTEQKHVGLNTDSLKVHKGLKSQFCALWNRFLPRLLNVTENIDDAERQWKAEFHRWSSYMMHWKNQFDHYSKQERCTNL

The first assay concerns the target T1, BuChE from equine serum (Equus caballus, UniProt P81908).
T1 construct: AChE was obtained from electric eel and BuChE from equine serum; purchased Sigma Aldrich; host or cells: equine serum (natural source)
The assay is described as follows: eqBuChE inhibition, Ellman's method. In kind it is biochemical. Conditions: BuChE from equine serum; read-out: eqBuChE IC50 Mean ± SEM. The protocol:
The inhibitory activities of the tested compounds against cholinesterases were evaluated by Ellman’s method. AChE was obtained from electric eel and BuChE from equine serum. […] Inhibitory activities of the tested compounds against cholinesterases were measured using a spectrophotometric method modified for 96-well microplates as described recently.
First, all compounds were screened at the concentration of 10 μM. […] Then, the percent of inhibition of tested enzymes for each compound was calculated. […] Each concentration was measured in triplicate. All calculations were made using nonlinear regression GraphPad Prism 5 (GraphPad Software, San Diego, CA, USA).
Regarding `c1ccc(-c2cccc(OCCCCCN3CCCCC3)c2)cc1` [Compound 7], the half-maximal inhibitory concentration (IC50) was 1290 ± 20 nM.

With `CC1CCN(CCCCCCOc2cccc(-c3ccccc3)c2)CC1` [Compound 17], the 50% inhibitory concentration (IC50) is 1490 ± 40 nM.

Consider `c1ccc(-c2cccc(OCCCCCN3CCCCCC3)c2)cc1` [Compound 20], for which the IC50 was found to be 470 ± 10 nM.

Turning to `c1ccc(-c2ccc(OCCCCCN3CCCCC3)cc2)cc1` [Compound 6], the IC50 worked out at 2160 ± 30 nM.

With `c1ccc(-c2cccc(OCCCCCCN3CCCCC3)c2)cc1` [Compound 9], the IC50 is 1780 ± 80 nM.

As for `c1ccc(-c2ccc(OCCCCCCN3CCCCC3)cc2)cc1` [Compound 8], the half-maximal inhibitory concentration (IC50) came to 1630 ± 50 nM.

The next assay deals with T2, human MAO B (Homo sapiens, UniProt P27338).
T2 construct: purchased Sigma Aldrich M7441
T2 sequence (P27338 1-520): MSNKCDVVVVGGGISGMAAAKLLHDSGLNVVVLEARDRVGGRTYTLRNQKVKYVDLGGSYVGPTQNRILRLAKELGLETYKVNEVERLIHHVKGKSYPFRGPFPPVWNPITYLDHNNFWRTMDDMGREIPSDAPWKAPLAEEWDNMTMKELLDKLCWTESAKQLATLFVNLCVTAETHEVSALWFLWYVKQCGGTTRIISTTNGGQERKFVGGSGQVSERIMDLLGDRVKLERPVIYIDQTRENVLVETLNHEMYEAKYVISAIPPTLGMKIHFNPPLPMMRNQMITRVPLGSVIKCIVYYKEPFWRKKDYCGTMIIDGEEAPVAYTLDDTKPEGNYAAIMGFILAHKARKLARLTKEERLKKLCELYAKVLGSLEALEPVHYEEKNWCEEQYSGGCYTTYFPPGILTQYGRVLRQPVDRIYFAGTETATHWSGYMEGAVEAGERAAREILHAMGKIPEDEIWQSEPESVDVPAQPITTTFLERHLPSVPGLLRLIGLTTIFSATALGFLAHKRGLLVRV
The assay is described as follows: fluorometric Monoamine Oxidase assay. In kind it is biochemical. Conditions: at 1 μM; read-out: hMAO B %Inh. (converted). The protocol:
Inhibition of human MAO B (hMAO B) was evaluated using a fluorometric Monoamine Oxidase assay as we described previously.
Inhibition of hMAO B was evaluated using fluorometric Monoamine Oxidase assay as described by Łażewska et al.. Recombinant MAO B was purchased from Sigma Aldrich (M7441). […] The assay was carried out in 96-well plate. Tested compounds dissolved in DMSO (1 μM) were added to wells that contained 98 µL of enzyme dilution (1 µg/well) in phosphate buffer (50 mM, pH 7.4). […] An enzymatic reaction started following addition of para-tyramine solution (200 μM). […] Each experiment was performed in duplicate.
On to `c1ccc(-c2cccc(OCCCCCN3CCCCC3)c2)cc1` [Compound 7], for which the inhibition at 1 µM was 11%.

On to `CC1CCN(CCCCCCOc2cccc(-c3ccccc3)c2)CC1` [Compound 17], for which the inhibition at 1 µM was 5%.

On to `c1ccc(-c2cccc(OCCCCCN3CCCCCC3)c2)cc1` [Compound 20], for which the inhibition at 1 µM was 14%.

Regarding `c1ccc(-c2ccc(OCCCCCN3CCCCC3)cc2)cc1` [Compound 6], the inhibition at 1 µM was 50%.

For the compound `c1ccc(-c2cccc(OCCCCCCN3CCCCC3)c2)cc1` [Compound 9], the inhibition at 1 µM was 16%.

`c1ccc(-c2ccc(OCCCCCCN3CCCCC3)cc2)cc1` [Compound 8]: the inhibition at 1 µM was 36%.

For `Clc1ccc(CCCOCCCN2CCCCC2)cc1` [Pitolisant, reference compound], the inhibition at 1 µM is 2%.

The next assay has as its system mouse model of scopolamine-induced memory impairments. The experiment in a line: step-through Passive Avoidance Task. In kind it is in vivo. As to conditions: 1.0 mg/kg i.p. before scopolamine 1 mg/kg, mice. The protocol:
This procedure was created for studying short-term memory as well as long-term memory. The paradigm requires the rodents to behave contrary to their innate preference for dark areas and for avoiding bright ones.
The experiments were carried out on adult male Albino Swiss mice (CD-1, 18–25 g). […] Experimental groups consisted of 6–12 animals, all the animals were used only once and they were killed by cervical dislocation immediately after the assay. Behavioral measures were scored by trained observers, which were blind to experimental conditions. Treatment of laboratory animals in the present study was in full accordance with the respective Polish regulations.
Control animals (negative control) were given an appropriate amount of vehicle (1% aqueous solution of Tween 80; i.p.) 30 min before the test.
The task was performed according to the method described previously. Briefly, the test was conducted in the apparatus with two compartments (LE872, Bioseb, France). The illuminated white compartment (20 cm × 21 cm × 20 cm, 1000 lx) was separated by an automated sliding gate with the smaller dark compartment (7.3 cm × 7.5 cm × 14 cm, 10 lx) equipped with an electric grid floor. For acquisition session, mice were first placed individually in the white compartment and after 30 s the gate to the smaller compartment was opened. Immediately after entering into the dark compartment, the gate was closed and the mouse was punished by an unavoidable electric foot shock (0.8 mA for 2 s). […] Next day (24 h later), the pretested animals were placed again into the bright compartment. […] The latency time to cross through the gate between the compartments was measured.
As to `CCN(C)C(=O)Oc1cccc([C@H](C)N(C)C)c1` [Rivastigmine, rivastigmine, reference compound], the “latency time, retention trial” value turned out to be 84.6 ± 20.1 s.

The assay is the same for the next values; noted with them: 2.5 mg/kg i.p. before scopolamine 1 mg/kg, mice.
For the compound `CCN(C)C(=O)Oc1cccc([C@H](C)N(C)C)c1` [Rivastigmine, rivastigmine, reference compound], the “latency time, retention trial” value is 98.7 ± 17.9 s.

The same assay, now with this note: mice, i.p.
Turning to `CCN(C)C(=O)Oc1cccc([C@H](C)N(C)C)c1` [Rivastigmine, rivastigmine, reference compound], the “latency times, acquisition trial” value is given as “neither scopolamine, nor 19 nor rivastigmine significantly affected latency times”.

On to `CN1[C@@H]2C[C@@H](OC(=O)[C@H](CO)c3ccccc3)C[C@H]1[C@@H]1O[C@@H]12` [Scopolamine, scopolamine, reference compound], for which the “latency times, acquisition trial” value was “neither scopolamine, nor 19 nor rivastigmine significantly affected latency times”.

Another assay concerns the target T3, AChE from electric eel (Electrophorus electricus, UniProt O42275).
T3 construct: AChE was obtained from electric eel and BuChE from equine serum; purchased Sigma Aldrich; host or cells: electric eel (natural source)
The experiment in a line: eeAChE inhibition, Ellman's method. Conditions: read-out: eeAChE % Inh. In kind it is biochemical. The protocol:
The inhibitory activities of the tested compounds against cholinesterases were evaluated by Ellman’s method. AChE was obtained from electric eel and BuChE from equine serum. Donepezil and rivastigmine were used as reference compounds. […]. Inhibitory activities of the tested compounds against cholinesterases were measured using a spectrophotometric method modified for 96-well microplates as described recently.
[…]. First, all compounds were screened at the concentration of 10 μM. The changes in absorbance were measured at 412 nm, using a microplate reader (EnSpire Multimode; PerkinElmer, Waltham, MA, USA). Then, the percent of inhibition of tested enzymes for each compound was calculated. […] Each concentration was measured in triplicate. All calculations were made using nonlinear regression GraphPad Prism 5 (GraphPad Software, San Diego, CA, USA).
Consider `c1ccc(-c2cccc(OCCCCCN3CCCCC3)c2)cc1` [Compound 7], for which the inhibition at 10 µM was determined as 24%.

For `CC1CCN(CCCCCCOc2cccc(-c3ccccc3)c2)CC1` [Compound 17], the inhibition at 10 µM came out at 48%.

Turning to `c1ccc(-c2cccc(OCCCCCN3CCCCCC3)c2)cc1` [Compound 20], the inhibition at 10 µM turned out to be 26%.

As for `c1ccc(-c2ccc(OCCCCCN3CCCCC3)cc2)cc1` [Compound 6], the inhibition at 10 µM is 24%.

As for `c1ccc(-c2cccc(OCCCCCCN3CCCCC3)c2)cc1` [Compound 9], the inhibition at 10 µM was 35%.

As for `c1ccc(-c2ccc(OCCCCCCN3CCCCC3)cc2)cc1` [Compound 8], the inhibition at 10 µM amounted to 48%.

In the next assay the target is human butyrylcholineserase.
Experiment: not given
Conditions: read-out: hBuChE IC50; cited from earlier work.
`CCN(C)C(=O)Oc1cccc([C@H](C)N(C)C)c1` [Rivastigmine, rivastigmine, reference compound]: the IC50 was 370 nM.

Another assay concerns the target T4, human histamine H3 receptor (Homo sapiens, UniProt Q9Y5N1).
T4 construct: expressed in transfected cells; host or cells: HEK293
Experiment: not given
Conditions: hH3R stably expressed in HEK293 cells; read-out: KD of radioligand at hH3R; cited from earlier work.
Consider `CNCCc1cnc[nH]1` [[^3H]N^α-methylhistamine, reference compound], for which the Kd is 3.08 nM.

Still in this assay, the particulars now being: read-out: hH3R Ki Mean ± SD [CI 95%]; [3H]Nα-methylhistamine, HEK293 cells stably expressing human H3R; cited from earlier work.
On to `CC1CCN(CCCCCCOc2cccc(-c3ccccc3)c2)CC1` [Compound 17], for which the Ki was 172 ± 73 nM.

Regarding `c1ccc(-c2cccc(OCCCCCCN3CCCCC3)c2)cc1` [Compound 9], the Ki was 149 ± 108 nM.

Source of the values: article PMC8231170, “Biphenylalkoxyamine Derivatives–Histamine H3 Receptor Ligands with Butyrylcholinesterase Inhibitory Activity” (Molecules, 2021).
